ChEMBL document CHEMBL4630908 (2021)
Active and inactive are the calls of the source. The rule behind the calls is not given here.

Assays:
[1] = molecular target: Histone acetyltransferase KAT2B (Homo sapiens, UniProt Q92831); test: PCAF DiscoverX BROMOscan
[2] = molecular target: SWI/SNF-related matrix-associated actin-dependent regulator of chromatin subfamily A member 2 (Homo sapiens, UniProt P51531); test: SMARCA2 DiscoverX BROMOscan
[3] = molecular target: Muscarinic acetylcholine receptor M1 (Homo sapiens) (UniProt P11229); details: Compound concentration 10.0 uM
[4] = molecular target: Muscarinic acetylcholine receptor M4 (Homo sapiens) (UniProt P08173); details: Compound concentration 10.0 uM
[5] = molecular target: Beta-2 adrenergic receptor (Homo sapiens, UniProt P07550); details: Compound concentration 10.0 uM
[6] = molecular target: T1, Bromodomain testis-specific protein (Homo sapiens, UniProt Q58F21); test: BRDT BD1 Bromoscan (DiscoverX)
[7] = molecular target: T2, Bromodomain-containing protein 3 (Homo sapiens, UniProt Q15059); test: TR-FRET assay (BRD3 BD1)
Target sequence in this assay (Q15059 whole entry): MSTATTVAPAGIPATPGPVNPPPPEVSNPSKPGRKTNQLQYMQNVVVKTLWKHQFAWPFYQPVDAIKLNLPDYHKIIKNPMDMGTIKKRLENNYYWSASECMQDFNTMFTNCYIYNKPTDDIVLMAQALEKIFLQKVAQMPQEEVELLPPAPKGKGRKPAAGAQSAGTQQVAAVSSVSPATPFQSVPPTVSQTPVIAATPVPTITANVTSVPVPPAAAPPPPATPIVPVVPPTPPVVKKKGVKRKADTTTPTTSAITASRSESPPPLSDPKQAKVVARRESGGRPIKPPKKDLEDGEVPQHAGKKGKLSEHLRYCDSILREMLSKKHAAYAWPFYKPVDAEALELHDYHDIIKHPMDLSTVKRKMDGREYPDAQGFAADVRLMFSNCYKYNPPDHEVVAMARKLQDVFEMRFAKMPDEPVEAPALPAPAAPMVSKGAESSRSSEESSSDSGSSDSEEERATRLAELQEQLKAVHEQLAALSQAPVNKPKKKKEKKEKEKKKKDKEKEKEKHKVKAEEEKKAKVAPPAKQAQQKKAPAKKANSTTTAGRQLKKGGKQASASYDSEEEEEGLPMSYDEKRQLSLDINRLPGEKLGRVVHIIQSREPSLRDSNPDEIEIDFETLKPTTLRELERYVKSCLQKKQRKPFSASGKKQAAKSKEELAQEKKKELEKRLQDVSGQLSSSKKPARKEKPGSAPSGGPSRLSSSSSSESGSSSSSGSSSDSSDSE

[8] = molecular target: Transcription intermediary factor 1-alpha (Homo sapiens, UniProt O15164); test: TRIM24(PHD,Bromo.) DiscoverX BROMOscan
[9] = molecular target: Sigma intracellular receptor 2 (Homo sapiens) (UniProt Q5BJF2); details: Compound concentration 10.0 uM
[10] = molecular target: GABA-A receptor; anion channel (Rattus norvegicus) (UniProt O09028+P15431+P18506+P18508+P19969+P20236+P23574+P23576+P28471+P28473+P30191+P62813+P63079+P63138+Q91ZM7+Q9ES14); details: Compound concentration 10.0 uM
[11] = molecular target: T2, Bromodomain-containing protein 3; test: BRD3 BD2 Bromoscan (DiscoverX)
Target sequence in this assay (Q15059 whole entry): as above

[12] = molecular target: T3, Bromodomain-containing protein 2 (Homo sapiens, UniProt P25440); test: BRD2(2) DiscoverX BROMOscan
[13] = molecular target: T1, Bromodomain testis-specific protein; test: BET mutant TR-FRET assay (BRDT BD2)
[14] = molecular target: Muscarinic acetylcholine receptor M2 (Homo sapiens) (UniProt P08172); details: Compound concentration 10.0 uM
[15] = molecular target: T1, Bromodomain testis-specific protein; test: TR-FRET assay (BRDT BD2)
[16] = molecular target: T2, Bromodomain-containing protein 3; test: BRD3(1) DiscoverX BROMOscan
Target sequence in this assay (Q15059 whole entry): as above

[17] = molecular target: T4, Protein polybromo-1 (Homo sapiens, UniProt Q86U86); test: PBRM1(5) DiscoverX BROMOscan
[18] = molecular target: T2, Bromodomain-containing protein 3; test: BRD3(1,2) DiscoverX BROMOscan
Target sequence in this assay (Q15059 whole entry): as above

[19] = molecular target: T3, Bromodomain-containing protein 2; test: BRD2(1) DiscoverX BROMOscan
[20] = molecular target: Beta-1 adrenergic receptor (Homo sapiens) (UniProt P08588); details: Compound concentration 10.0 uM
[21] = molecular target: Alpha-1D adrenergic receptor (Homo sapiens) (UniProt P25100); details: Compound concentration 10.0 uM
[22] = molecular target: Bromodomain-containing protein 7 (Homo sapiens, UniProt Q9NPI1); test: BRD7 DiscoverX BROMOscan
[23] = molecular target: T3, Bromodomain-containing protein 2; test: BRD2(1,2) DiscoverX BROMOscan
[24] = molecular target: D(1A) dopamine receptor (Homo sapiens, UniProt P21728); details: Compound concentration 10.0 uM
[25] = molecular target: Bromodomain and PHD finger-containing protein 3 (Homo sapiens, UniProt Q9ULD4); test: BRPF3 DiscoverX BROMOscan
[26] = molecular target: Bromodomain-containing protein 9 (Homo sapiens, UniProt Q9H8M2); test: BRD9 DiscoverX BROMOscan
[27] = molecular target: T1, Bromodomain testis-specific protein; test: BRDT(2) DiscoverX BROMOscan
[28] = molecular target: 5-hydroxytryptamine receptor 1A (Homo sapiens) (UniProt P08908); details: Compound concentration 10.0 uM
[29] = molecular target: T3, Bromodomain-containing protein 2; test: BRD2 BD1 Bromoscan (DiscoverX)
[30] = molecular target: Mu-type opioid receptor (Homo sapiens, UniProt P35372); details: Compound concentration 10.0 uM
[31] = molecular target: Histone acetyltransferase p300 (Homo sapiens, UniProt Q09472); test: EP300 DiscoverX BROMOscan
[32] = molecular target: Bromodomain-containing protein 8 (Homo sapiens, UniProt Q9H0E9); test: BRD8(1) DiscoverX BROMOscan
[33] = molecular target: 5-hydroxytryptamine receptor 2C (Homo sapiens) (UniProt P28335); test: (§1) Cross screening panel; details: filed as antagonist
[34] = molecular target: 5-hydroxytryptamine receptor 2A (Homo sapiens, UniProt P28223); test: as §1; details: filed as antagonist
[35] = molecular target: Muscarinic acetylcholine receptor M3 (Homo sapiens) (UniProt P20309); details: Compound concentration 10.0 uM
[36] = molecular target: D(3) dopamine receptor (Homo sapiens) (UniProt P35462); details: Compound concentration 10.0 uM
[37] = molecular target: Delta-type opioid receptor (Homo sapiens) (UniProt P41143); details: Compound concentration 10.0 uM
[38] = molecular target: T2, Bromodomain-containing protein 3; test: TR-FRET assay (BRD3 BD2)
Target sequence in this assay (Q15059 whole entry): as above

[39] = molecular target: T2, Bromodomain-containing protein 3; test: BET mutant TR-FRET assay (BRD3 BD2)
Target sequence in this assay (Q15059 2-726 limits assumed, change not shown): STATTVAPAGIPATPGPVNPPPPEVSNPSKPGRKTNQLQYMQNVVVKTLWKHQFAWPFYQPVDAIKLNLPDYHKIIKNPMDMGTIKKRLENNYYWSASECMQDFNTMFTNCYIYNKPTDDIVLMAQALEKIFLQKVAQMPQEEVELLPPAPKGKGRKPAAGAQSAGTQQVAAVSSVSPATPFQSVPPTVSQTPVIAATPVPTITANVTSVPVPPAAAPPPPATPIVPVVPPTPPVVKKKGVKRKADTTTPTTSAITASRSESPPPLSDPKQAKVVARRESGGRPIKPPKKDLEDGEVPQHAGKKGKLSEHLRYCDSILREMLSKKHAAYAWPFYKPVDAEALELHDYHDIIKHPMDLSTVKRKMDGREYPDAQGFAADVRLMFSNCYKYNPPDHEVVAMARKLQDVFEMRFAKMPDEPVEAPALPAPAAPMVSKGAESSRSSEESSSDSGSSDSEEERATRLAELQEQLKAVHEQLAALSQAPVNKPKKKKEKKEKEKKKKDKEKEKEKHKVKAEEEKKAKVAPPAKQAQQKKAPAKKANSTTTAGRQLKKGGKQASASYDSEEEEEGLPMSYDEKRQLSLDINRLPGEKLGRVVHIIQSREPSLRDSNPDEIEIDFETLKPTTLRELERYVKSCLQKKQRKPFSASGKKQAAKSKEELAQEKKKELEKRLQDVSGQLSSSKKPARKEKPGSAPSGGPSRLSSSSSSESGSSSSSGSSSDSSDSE

[40] = molecular target: ATPase family AAA domain-containing protein 2 (Homo sapiens, UniProt Q6PL18); test: ATAD2A DiscoverX BROMOscan
[41] = molecular target: Sodium-dependent dopamine transporter (Homo sapiens) (UniProt Q01959); details: Compound concentration 10.0 uM
[42] = molecular target: 5-hydroxytryptamine receptor 1B (Homo sapiens, UniProt P28222); details: Compound concentration 10.0 uM
[43] = molecular target: Sigma non-opioid intracellular receptor 1 (Homo sapiens) (UniProt Q99720); details: Compound concentration 10.0 uM
[44] = molecular target: CREB-binding protein (Homo sapiens, UniProt Q92793); test: CREBBP DiscoverX BROMOscan
[45] = molecular target: T4, Protein polybromo-1; test: PBRM1(2) DiscoverX BROMOscan
[46] = molecular target: Bromodomain-containing protein 1 (Homo sapiens, UniProt O95696); test: BRD1 DiscoverX BROMOscan
[47] = molecular target: 5-hydroxytryptamine receptor 7 (Homo sapiens) (UniProt P34969); details: Compound concentration 10.0 uM
[48] = molecular target: T2, Bromodomain-containing protein 3; test: BET mutant TR-FRETassay (BRD3 BD1)
Target sequence in this assay (Q15059 2-726 limits assumed, change not shown): as above

[49] = molecular target: Muscarinic acetylcholine receptor M5 (Homo sapiens) (UniProt P08912); details: Compound concentration 10.0 uM
[50] = molecular target: GABA-A receptor; anion channel; test: as §1; assay type: protein-complex assay
[51] = molecular target: Voltage-gated potassium channel, IKs; KCNQ1(Kv7.1)/KCNE1(MinK) (Homo sapiens, UniProt P15382+P51787); test: as §1; assay type: protein-complex assay
[52] = molecular target: Alpha-2B adrenergic receptor (Homo sapiens) (UniProt P18089); details: Compound concentration 10.0 uM
[53] = molecular target: 5-hydroxytryptamine receptor 2B (Homo sapiens) (UniProt P41595); details: Compound concentration 10.0 uM

T3 sequence (P25440 whole entry): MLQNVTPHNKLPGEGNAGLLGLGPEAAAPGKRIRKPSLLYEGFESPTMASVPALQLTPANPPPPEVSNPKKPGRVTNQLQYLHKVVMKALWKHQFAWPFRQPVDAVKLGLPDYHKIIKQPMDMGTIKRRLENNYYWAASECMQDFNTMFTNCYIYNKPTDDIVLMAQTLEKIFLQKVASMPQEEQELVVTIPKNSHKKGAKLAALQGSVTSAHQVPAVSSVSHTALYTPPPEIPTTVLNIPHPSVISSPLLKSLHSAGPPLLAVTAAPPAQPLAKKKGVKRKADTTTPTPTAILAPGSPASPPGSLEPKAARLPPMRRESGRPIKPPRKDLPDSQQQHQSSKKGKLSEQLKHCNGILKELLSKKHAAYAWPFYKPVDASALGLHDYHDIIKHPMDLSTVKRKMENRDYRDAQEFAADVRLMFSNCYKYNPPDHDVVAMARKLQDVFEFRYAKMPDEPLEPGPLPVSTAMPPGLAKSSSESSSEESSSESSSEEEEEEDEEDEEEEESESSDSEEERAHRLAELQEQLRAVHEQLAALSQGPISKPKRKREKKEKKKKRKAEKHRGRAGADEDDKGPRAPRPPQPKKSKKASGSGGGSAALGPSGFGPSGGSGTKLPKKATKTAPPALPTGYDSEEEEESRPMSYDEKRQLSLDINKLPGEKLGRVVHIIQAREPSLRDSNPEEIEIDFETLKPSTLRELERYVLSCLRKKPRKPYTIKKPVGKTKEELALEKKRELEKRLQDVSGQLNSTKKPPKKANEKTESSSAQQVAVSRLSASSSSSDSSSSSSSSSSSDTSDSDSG
T4 sequence (Q86U86 whole entry): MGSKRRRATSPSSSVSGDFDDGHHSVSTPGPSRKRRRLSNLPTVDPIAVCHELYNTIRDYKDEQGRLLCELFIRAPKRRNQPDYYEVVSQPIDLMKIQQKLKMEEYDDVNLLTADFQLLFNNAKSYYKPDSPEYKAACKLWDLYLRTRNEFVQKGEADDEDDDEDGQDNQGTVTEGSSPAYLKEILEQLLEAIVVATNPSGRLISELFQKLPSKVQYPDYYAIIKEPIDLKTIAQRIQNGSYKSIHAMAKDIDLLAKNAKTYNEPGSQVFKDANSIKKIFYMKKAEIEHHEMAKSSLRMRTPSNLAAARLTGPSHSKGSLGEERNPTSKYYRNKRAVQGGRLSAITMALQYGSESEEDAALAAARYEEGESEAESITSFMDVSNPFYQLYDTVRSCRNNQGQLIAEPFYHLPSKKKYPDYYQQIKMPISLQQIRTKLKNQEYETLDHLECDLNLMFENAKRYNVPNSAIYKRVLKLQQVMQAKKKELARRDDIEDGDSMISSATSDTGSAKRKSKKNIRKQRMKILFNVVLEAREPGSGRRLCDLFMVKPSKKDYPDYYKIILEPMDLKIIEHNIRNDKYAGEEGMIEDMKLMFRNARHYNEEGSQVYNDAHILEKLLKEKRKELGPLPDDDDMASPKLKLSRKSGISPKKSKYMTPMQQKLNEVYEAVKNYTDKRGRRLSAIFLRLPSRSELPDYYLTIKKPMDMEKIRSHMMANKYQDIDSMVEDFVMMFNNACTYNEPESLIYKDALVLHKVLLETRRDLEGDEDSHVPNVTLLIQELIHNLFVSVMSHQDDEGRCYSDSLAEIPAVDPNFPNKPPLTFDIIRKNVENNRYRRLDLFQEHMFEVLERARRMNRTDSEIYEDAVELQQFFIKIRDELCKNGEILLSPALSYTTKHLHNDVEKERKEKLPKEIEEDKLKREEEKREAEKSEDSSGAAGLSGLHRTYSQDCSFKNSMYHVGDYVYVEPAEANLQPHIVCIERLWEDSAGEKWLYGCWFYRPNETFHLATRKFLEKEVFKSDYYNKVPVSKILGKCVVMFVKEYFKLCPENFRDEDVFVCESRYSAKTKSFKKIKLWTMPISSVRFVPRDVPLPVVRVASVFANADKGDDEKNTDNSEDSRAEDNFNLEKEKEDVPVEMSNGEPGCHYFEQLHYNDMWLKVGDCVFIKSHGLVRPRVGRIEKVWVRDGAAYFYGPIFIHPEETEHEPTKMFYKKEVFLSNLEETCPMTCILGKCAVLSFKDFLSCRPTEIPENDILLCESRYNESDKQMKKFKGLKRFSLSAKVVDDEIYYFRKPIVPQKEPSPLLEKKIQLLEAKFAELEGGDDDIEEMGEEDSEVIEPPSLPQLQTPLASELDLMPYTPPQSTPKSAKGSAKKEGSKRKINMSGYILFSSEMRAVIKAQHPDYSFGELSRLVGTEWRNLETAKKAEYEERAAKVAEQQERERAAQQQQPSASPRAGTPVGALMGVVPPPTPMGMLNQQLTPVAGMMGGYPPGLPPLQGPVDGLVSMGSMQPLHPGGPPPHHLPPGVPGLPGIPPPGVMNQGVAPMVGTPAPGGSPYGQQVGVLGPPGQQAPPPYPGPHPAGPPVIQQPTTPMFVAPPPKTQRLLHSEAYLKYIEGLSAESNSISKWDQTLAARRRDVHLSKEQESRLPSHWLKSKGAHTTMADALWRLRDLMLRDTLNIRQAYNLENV
Muscarinic acetylcholine receptor M3 (Homo sapiens), sequence (P20309 whole entry, looked up): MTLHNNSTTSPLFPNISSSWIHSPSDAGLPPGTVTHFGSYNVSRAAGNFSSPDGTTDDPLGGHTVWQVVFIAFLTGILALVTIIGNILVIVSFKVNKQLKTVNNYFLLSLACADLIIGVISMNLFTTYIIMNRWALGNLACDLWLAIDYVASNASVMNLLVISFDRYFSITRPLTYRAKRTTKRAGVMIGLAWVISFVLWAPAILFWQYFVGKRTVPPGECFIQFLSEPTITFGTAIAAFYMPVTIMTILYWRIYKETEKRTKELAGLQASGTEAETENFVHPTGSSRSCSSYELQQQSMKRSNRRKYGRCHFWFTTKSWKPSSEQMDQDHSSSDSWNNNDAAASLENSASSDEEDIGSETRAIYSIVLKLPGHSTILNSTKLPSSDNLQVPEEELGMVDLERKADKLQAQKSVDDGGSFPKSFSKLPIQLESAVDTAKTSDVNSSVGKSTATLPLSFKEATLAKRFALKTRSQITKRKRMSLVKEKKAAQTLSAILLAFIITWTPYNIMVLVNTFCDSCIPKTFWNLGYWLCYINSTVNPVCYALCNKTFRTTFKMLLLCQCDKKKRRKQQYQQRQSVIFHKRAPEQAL
Sigma intracellular receptor 2 (Homo sapiens), sequence (Q5BJF2 whole entry): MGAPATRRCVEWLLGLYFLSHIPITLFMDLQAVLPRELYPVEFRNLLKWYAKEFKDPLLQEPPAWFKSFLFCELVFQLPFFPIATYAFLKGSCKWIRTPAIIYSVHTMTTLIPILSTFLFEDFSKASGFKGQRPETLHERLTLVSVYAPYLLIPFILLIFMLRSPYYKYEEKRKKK

CC(=O)Nc1c(F)cc(C(=O)N[C@H]2CC[C@H](O)CC2)cc1O[C@@H](C)c1ccccc1 [GSK046]
Kd [1]: 30 µM | Kd [2]: 30 µM | inhibition [3]: -4.64% | inhibition [4]: -0.27% | inhibition [5]: 28.1% | Kd [6]: 2.45 µM (not active) | IC50 [7]: 36.3 µM (not active) | Kd [8]: 30 µM | inhibition [9]: -0.94% | inhibition [10]: 0.61% | Kd [11]: 0.032 µM (active) | Kd [12]: 0.035 µM | pIC50 [13]: 6.7 | inhibition [14]: 18.1% | IC50 [15]: 0.214 µM (active) | Kd [16]: 2.08 µM | Kd [17]: 30 µM | Kd [18]: 0.047 µM | Kd [19]: 1.62 µM | inhibition [20]: -6.85% | inhibition [21]: -6.01% | Kd [22]: 30 µM | Kd [23]: 0.1 µM | inhibition [24]: 4.11% | Kd [25]: 30 µM | Kd [26]: 30 µM | Kd [27]: 0.015 µM | inhibition [28]: -8.96% | Kd [29]: 1.62 µM (not active) | inhibition [30]: 20.4% | Kd [31]: 30 µM | Kd [32]: 30 µM | fpKi [33]: < 4.6 | fpKi [34]: < 4.6 | inhibition [35]: 16% | inhibition [36]: 39.1% | inhibition [37]: 27.1% | IC50 [38]: 0.098 µM (active) | pIC50 [39]: 7 | Kd [40]: 30 µM | inhibition [41]: 3.3% | inhibition [42]: 11.6% | inhibition [43]: 6.84% | Kd [44]: 30 µM | Kd [45]: 30 µM | Kd [46]: 30 µM | inhibition [47]: 17.6% | pIC50 [48]: 4.4 | inhibition [49]: 0.93% | pEC50 [50]: < 4 | pIC50 [50]: < 4 | IC50 [51]: > 25.1 µM | inhibition [52]: 3.38% | inhibition [53]: -6.98%
